From patent EP3820512B1, “IMMUNOMODULATING COMPOSITIONS COMPRISING OLIGOSACCHARIDE DERIVATIVES” (priority 2018, dated 2020)

Legend:
[1] = test system: hyperoxia-induced lung injury in mice; assay: Hyperoxia induced ALI model; type: in vivo, C57BL/6 mice
Experimental: (§1) Male C57BL/6 mice (Jackson Laboratories,) 12-15 weeks old, 25 - 28 gms, housed up to 5 per cage were used.
Hyperoxia induced ALI model: The ARDS model consists of exposing adult mice in 100% oxygen for 48h followed by injecting with test compounds. Adult mice (N=5) were housed in plexi chamber with a constant and continuous supply of 100% oxygen for 48h. […] The mice were sacrificed after 48 h to harvest lung tissues and collect (BAL) fluid.

TLR4 = TLR4 (Homo sapiens, UniProt O00206); assay: TLR4 modulation: IL-1β ELISA in hPBMC, alone or with TLR4 ligand LPS; type: cell-based; set-up: endogenous in cells
TLR4, sequence (O00206 24-839): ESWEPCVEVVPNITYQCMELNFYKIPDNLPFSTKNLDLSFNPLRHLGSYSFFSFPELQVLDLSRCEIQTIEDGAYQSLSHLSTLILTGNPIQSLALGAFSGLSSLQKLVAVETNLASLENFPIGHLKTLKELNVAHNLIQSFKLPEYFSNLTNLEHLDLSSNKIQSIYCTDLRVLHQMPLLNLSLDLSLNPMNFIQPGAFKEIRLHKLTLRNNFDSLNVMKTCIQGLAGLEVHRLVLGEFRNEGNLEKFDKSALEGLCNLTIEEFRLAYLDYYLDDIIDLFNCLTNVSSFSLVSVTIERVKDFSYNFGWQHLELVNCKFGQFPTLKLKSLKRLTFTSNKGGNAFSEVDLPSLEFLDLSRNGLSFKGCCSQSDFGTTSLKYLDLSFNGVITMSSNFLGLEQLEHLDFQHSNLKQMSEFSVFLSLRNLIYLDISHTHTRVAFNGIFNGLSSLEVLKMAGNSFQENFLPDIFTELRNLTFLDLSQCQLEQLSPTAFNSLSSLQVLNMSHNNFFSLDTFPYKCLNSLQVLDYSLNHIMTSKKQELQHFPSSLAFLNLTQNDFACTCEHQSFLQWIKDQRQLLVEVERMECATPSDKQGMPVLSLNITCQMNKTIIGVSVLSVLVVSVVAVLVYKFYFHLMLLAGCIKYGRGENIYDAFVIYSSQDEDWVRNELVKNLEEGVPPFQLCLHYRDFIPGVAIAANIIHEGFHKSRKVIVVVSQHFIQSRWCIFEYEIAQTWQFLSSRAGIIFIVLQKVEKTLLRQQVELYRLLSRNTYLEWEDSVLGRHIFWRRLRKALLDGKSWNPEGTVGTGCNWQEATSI
TLR4, sequence (Q9Y6Y9 17-160 partner limits assumed): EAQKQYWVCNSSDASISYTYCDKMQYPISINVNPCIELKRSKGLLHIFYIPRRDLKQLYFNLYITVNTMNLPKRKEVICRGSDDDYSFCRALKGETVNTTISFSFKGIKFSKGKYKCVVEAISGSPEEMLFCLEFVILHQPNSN
Excerpt: Compound 8 modulates the TLR4 activities in a concentration dependent manner.

[2] = test system: hyperoxia induced BPD in mouse pups; assay: Hyperoxia-exposed BPD mouse model (newborn pups); type: in vivo
Excerpt: Neonatal mice and humans undergo similar stages of lung development but differ with respect to the duration of each stage and its temporal relationship to gestational age. The lungs of the mouse born at term are in the saccular stage and are surfactant sufficient; this can be considered somewhat akin to a human preterm neonate in the same stage of lung development that has been exposed to a full complement of antenatal steroids (which is known to enhance surfactant production). In terms of mimicking the human condition, the most successful hyperoxia models are those that limit exposure to hyperoxia to the saccular stage of pulmonary development. The mouse BPD model involves exposing newborn mice (postnatal day 1 or PN1) to 100% oxygen till PN4 followed by recovery in room air (RA) for another 10 days.
After the recovery period, their lungs were harvested and processed for quantitative PCR, western blotting, histopathology and ELISA.
After the recovery period, their lungs were harvested and processed for quantitative PCR, western blotting and histopathology and ELISA.
BPD is characterized by large simplified alveoli, inflammation, increased cell death, decreased cell proliferation, dysmorphic capillary configuration, and variable interstitial cellularity and/or fibroproliferation. […] This is determined by measuring the alveolar chord length, septal thickness and radial alveolar count (RAC). In BPD, the alveolar area increases which is characterized by increase in the diameter of the alveolar sacs, the septa become thickened (thus interfering in gaseous exchange) and the RAC, a parameter used to assess the complexity of terminal respiratory unit by pulmonologists, decreases as a result of arrested lung development.

TLR6 = target: T1, TLR6 (Homo sapiens, UniProt Q9Y2C9); assay: TLR6 stimulation: IL-6 ELISA in hPBMC with TLR6 ligand Pam2CSK4; type: cell-based; settings: in combination with Pam2CSK4, hPBMC, 24h
T1 construct: endogenous in cells; host or cells: hPBMC (human peripheral blood monocytes)
T1 sequence (Q9Y2C9 32-796): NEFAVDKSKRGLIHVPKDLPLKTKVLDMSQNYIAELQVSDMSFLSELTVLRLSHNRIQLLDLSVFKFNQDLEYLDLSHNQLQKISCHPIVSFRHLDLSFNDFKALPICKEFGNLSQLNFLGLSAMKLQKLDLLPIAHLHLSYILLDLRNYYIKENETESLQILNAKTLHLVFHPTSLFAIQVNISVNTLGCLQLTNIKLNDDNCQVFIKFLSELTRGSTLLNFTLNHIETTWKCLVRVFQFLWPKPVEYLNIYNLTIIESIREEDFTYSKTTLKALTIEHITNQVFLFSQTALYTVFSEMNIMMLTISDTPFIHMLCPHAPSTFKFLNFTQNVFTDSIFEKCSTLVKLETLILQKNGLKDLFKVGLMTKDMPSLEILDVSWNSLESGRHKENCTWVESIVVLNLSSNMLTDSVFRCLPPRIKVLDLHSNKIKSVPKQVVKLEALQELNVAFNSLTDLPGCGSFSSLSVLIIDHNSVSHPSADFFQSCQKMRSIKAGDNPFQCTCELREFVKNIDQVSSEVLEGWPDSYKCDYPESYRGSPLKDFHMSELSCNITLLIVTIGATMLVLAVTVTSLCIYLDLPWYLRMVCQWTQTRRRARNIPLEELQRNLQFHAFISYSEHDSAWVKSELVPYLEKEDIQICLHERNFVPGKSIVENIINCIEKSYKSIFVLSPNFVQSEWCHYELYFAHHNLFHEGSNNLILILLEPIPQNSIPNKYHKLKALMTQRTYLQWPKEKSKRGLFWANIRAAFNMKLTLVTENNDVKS
T1 sequence (O60603 21-784 partner): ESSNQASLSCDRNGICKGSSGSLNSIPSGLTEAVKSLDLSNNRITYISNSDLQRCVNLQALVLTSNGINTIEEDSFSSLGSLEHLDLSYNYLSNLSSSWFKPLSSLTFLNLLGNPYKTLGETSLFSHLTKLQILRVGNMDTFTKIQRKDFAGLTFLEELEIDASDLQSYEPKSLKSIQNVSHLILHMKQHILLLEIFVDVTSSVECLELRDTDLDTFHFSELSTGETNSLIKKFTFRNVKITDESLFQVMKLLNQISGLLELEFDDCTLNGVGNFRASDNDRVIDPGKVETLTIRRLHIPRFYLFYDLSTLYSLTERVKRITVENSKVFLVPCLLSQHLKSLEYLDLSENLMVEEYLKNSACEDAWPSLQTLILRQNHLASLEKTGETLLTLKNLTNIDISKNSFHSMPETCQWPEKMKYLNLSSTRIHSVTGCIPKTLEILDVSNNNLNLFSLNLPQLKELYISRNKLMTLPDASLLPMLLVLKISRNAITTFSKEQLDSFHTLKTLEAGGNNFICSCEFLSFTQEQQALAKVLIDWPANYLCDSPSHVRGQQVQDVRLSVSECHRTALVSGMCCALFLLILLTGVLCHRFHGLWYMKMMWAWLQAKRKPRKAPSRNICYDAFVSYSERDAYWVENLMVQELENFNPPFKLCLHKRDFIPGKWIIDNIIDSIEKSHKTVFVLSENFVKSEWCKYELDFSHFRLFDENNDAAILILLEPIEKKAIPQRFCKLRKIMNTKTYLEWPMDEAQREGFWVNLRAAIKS
Experimental: Compound 8 stimulates the TLR6 activities and upregulates the production of IL-6 cytokine in combination with TLR6 ligand Pam2CSK4 in hPBMC after 24h of treatment as detected by ELISA (FIG. 9).

[3] = test system: LPS induced lung injury in mice; assay: LPS-induced ALI model; type: in vivo, C57BL/6 mice
Excerpt: as §1
The lungs were sectioned for histopathological assessment after H/E staining while the BAL fluid was used to detect total cell counts (neutrophils and macrophages) and measure protein (that exudes by leakage).

Q: What does the source list for CC(=O)N[C@H]1[C@H](Oc2ccc([N+](=O)[O-])cc2)O[C@H](CO)[C@@H](O)[C@@H]1O [Compound 8, p-Nitrophenyl 2-acetamido-2-deoxy-β-D-glucopyranoside]?
A: protection against hyperoxia induced lung injury ([1]; IP 10 mg/kg, two doses, 100% oxygen 48h): significant protection; hyperoxia-induced lung inflammation ([1]; IP injection): ameliorated; IL-1β protein level (TLR4; 0.1 µM to <1 µM, alone or in combination with LPS, 24h, ELISA): downregulate; production of IL-1β (TLR4; 1.0 µM, alone and in combination with LPS): significantly stimulated; IFN-Y ([2]; 10mg/kg, ELISA (FIG. 26)): decreases; IL-1β ([2]; 10mg/kg, ELISA (FIG. 26)): decreases; IL-6 ([2]; 10mg/kg, ELISA (FIG. 26)): decreases; IL-17 ([2]; 10mg/kg, ELISA (FIG. 26)): decreases; MCP-1 ([2]; 10mg/kg, ELISA (FIG. 26)): decreases; MIP-2 ([2]; 10mg/kg, ELISA (FIG. 26)): decreases; TNF-α ([2]; 10mg/kg, ELISA (FIG. 26)): decreases; anti-inflammatory cytokine IL-10 ([2]; 10mg/kg, ELISA (FIG. 26H)): increase; hyperoxia induced BPD ([2]; IP and IV, saline solution, 5mg/kg or 10 mg/kg on PN2 and PN4 (FIG. 24)): prevent; chord length ([2]; IP injection (FIG. 25)): improvement; radial alveolar count ([2]; IP injection (FIG. 25)): improvement; septal thickness ([2]; IP injection (FIG. 25)): improvement; Inflammatory cytokines in lung tissue and serum ([2]; after injections): decreased; TLR4 inhibition in vivo ([2]; neonatal pups with BPD): inhibit; lung architecture ([2]; saline (IV) and nanosuspension (IN) formulation): restored; production of IL-6 cytokine (TLR6): upregulates; protection against LPS induced lung injury ([3]; IP 10mg/kg at 4h and 12h post LPS, sacrifice after 24 h): significant protection; LPS-induced lung inflammation ([3]; IP injection): ameliorated
